Experimental data from US5273989A, “3,5-disubstituted 2-isoxazolines and isoxazoles, agents containing them and their use” (Hoechst Aktiengesellschaft, priority 1990, dated 1993).
Structures can show the parent of a compound that is named as a salt. Where two headings read alike, the source gives them in different places.

What was measured:
[1] = tested on: NMDA receptor-channel complex; test: Inhibition of 3H-MK-801 binding to membranes from rat brain; details: preparation concentration 50 μM; 3H-MK801 1 nM
Experimental: 3. Inhibition of ^3 H-MK-801 binding to membranes from rat brain
Test principle: MK-801 is a non-competitive antagonist which binds to ion channels coupled to NMDA receptors (Yoneda et al., Brain Res. 499 (1989), 305). Membranes from whole brain containing preparation and ^3 H-MK-801 are incubated in the test. The binding of ^3 H-MK-801 or its displacement by preparations (antagonists) is determined by radiochemical methods.
Experimental protocol: The binding experiments are carried out by the method of Reynolds et al. (Proc. Natl. Acad. Sci. USA, 84 (1987), 7744). Membrane preparation is first carried out according to Reynolds. Test samples are then pipetted, buffer and test preparation being initially introduced, then preincubated with protein for 2 minutes, and initiated using ^3 H-MK801. The membranes are thawed at 37° C., incubated at 37° C. for 10 minutes and homogenized for 15 seconds at half the maximum speed by means of a Polytron, then used in the cool state again. The incubation medium contains: pH 7.4 Hepes buffer 20 mM, preparations in three concentrations 5 μM, 10 μM and 50 μM, membranes 500 μg/ml of test solution, ^3 H-MK801 1 nM. Incubation is carried out at room temperature (23° C.) for 60 minutes and is then stopped by filtration. For this purpose, glass fiber paper No. 32 from Schleicher and Schull, which had been soaked in 0.03% polyethyleneimine for 30 minutes on the day before the experiment are counted in 4 ml of "Packard 199™" Scintillation fluid (Frankfurt). Tritium is determined by liquid scintillation counting using a Packard 1500.
Calculation of the results: The calculation of the binding in femtomol/mg of protein over a period of 60 min. was carried out using a small calculator (HP-97). If a substance antagonizes the binding, the value decreases. Substance activities are indicated in Table 5 as percentages, i.e. in % binding compared to the control. The activity of the comparison preparation CPP (3-(+)-2-carboxypiperazin-4-ylpropyl-1-phosphonic acid) at 5 μM, 10 μM and 50 μM is always determined to check the test.

[2] = tested on: CA1 pyramidal cells of the hippocampus after forebrain ischemia; test: Neuroprotection after forebrain ischemia in the gerbil; details: 50 mg/kg p.o., 15 minutes before ischemia
Experimental: A 5-minutes' ischemia of the forebrain with subsequent recirculation is produced in 20 male Mongolian gerbils under halothane anesthesia by bilateral closure of the corotid artery by means of aneurysm clips. 7 days later, the animals are decapitated under halothane anesthesia, the brains are fixed by immersion in Carnoy solution and the extent of neuron damage in the CA1 region of the hippocampus is determined "blind" with the aid of a 5-stage histopathological score. The test substance is administered intraperitoneally or orally 15 minutes before ischemia to each group of 10 gerbils. One ischemic control group, also of 10 animals, is treated with the respective solvents per test substance.

[3] = tested on: NMDA-stimulated 3H-acetylcholine release, striatum sections; test: Inhibition of NMDA-stimulated 3H-acetylcholine release from striatum sections of the rat brain; type: cell-based; details: preparation concentration 10 μM, 25 μmol/l NMDA stimulus, relative to control S2/S1, read-out: Inhibition of 3H-acetylcholine release from striatum sections, Inhibition (%)
Experimental: 2. Inhibition of ^3 H-acetylcholine release from striatum sections of the rat brain
Test principle: For the test, fresh striatum sections from rat brain were rinsed with buffer solution in a special chamber and the release of the tritium-labeled acetylcholine was measured after stimulation with NMDA. Preparations having NMDA-antagonist action inhibit acetylcholine release.
Experimental protocol: The superfusion experiments were carried out by the method of Wichman et al. (Naunyn-Schmied. Arch. Pharmacol., 338 (1988), 623-631). Rat brain sections, 0.5 mm thick, were preincubated for 30 min in 2 ml of incubation medium which contains 0.1 μmol/l of ^3 H-choline having a specific activity of 80 Ci/mmol. In each of 6 superfusion chambers, a section was transferred and superfused for 90 min at a rate of 1.5 ml/min. 2 min fraction of the superfusate were continuously collected. Each section was superfused twice with 25 μmol/l of NMDA of two minutes each time in order to stimulate the release of acetylcholine. The first stimulus (S1) takes place between the 54th and the 56th minute and the 2nd stimulus (S2) between the 76th and 78th minute. The incubation medium contained, in mmol/l: NaCl 118, KCl 4.8, CaCl2 1.2, MgSO4 1.2, NaHCO3 25, KH2 PO4 1.2 and glucose 10. The medium was saturated with Carbogen at 37° C. The pH was adjusted to 7.4 NMDA and the novel preparations to be tested were dissolved in superfusion medium. The superfusion was carried out using Mg^2+ -free medium. Tritium from the dissolved sections and from the superfusate was determined by liquid scintillation counting using a Packard® 1900 CA (Frankfurt) at a 50% efficiency.
Calculation of the Results
Basal release and NMDA-stimulated release for S1 and S2 were expressed in %/min of each fraction (Limberger et al, Naunyn Schmied. Arch. Pharmacol. 339 (1988), 53-61).
The value for the stimulated release S2 /S1 was calculated for the control as 0.69±0.09. The value decreases if a substance, such as, for example, the NMDA receptor antagonist CPP (3-(+)-2-carboxypiperazin-4-ylpropyl-1-phosphonic acid) known from the literature inhibited the NMDA-stimulated release. The inhibition of the stimulated release by preparations was calculated in percent, relative to the control value, and is indicated in Table 4.

[4] = tested on: high affinity 3H-D-aspartate absorption, synaptic vesicles (synaptosomes) from rat cortex; test: "High affinity" absorption of 3H-aspartate in a vesicle preparation from rat brain; type: biochemical; details: preparation concentration 100 μM; relative to control values (100%)
Experimental: 1. "High affinity" absorption of ^3 H-aspartate in a vesicle preparation from rat brain.
Test principle: Fresh synaptic vesicles (synaptosomes) from rat cortex are incubated with buffer solution and ^3 H-D-aspartate and ^3 H-D-aspartate in the vesicles is measured. Preparations which in comparison to control synaptosomes increase the high affinity ^3 H-D-aspartate absorption and those which prevent the loss of ^3 H-D-aspartate by reliberation are regarded as particularly interesting.
Experimental protocol: The experiments for ^3 H-D-aspartate absorption were carried out by the method of Anand et al. (Biochem. Pharmacol., 35 (1986), 1055-1057). The synaptic vesicles were dissected out of cerebral cortex from male Sprague-Dawley rats. The preparations were tested at four concentrations as double samples in parallel with control samples containing buffer. The incubation medium (pH 7.4) contains: 1.2 mM KH2 PO4, 5 mM KCl, 5 mM pyruvate, 1.2 mM glucose, 1.2 mM MgCl2, 114 mM NaCl, 25 mM NaHCO3. For the non-specific ^3 H-D-aspartate absorption, NaCl was replaced by 114 mM choline chloride and NaHCO3 by 25 mM KHCO3. An aliquot of the vesicle suspension (about 25 μg/ml of test solution) was added to the test sample which was temperature controlled at 37° C. and aerated with Carbogen (5% CO2, 95% O2) and preincubated for 2 minutes. The three minutes incubation for the amino acid absorption was started by addition of 50 μl of ^3 H-D-aspartate (specific activity 25 Ci/mmol, 10 pmol/ml of test solution). The vesicles were separated from the incubation medium by filtration and additional washing of the adhering labeled amino acids using a Titertek cell harvester (Flow Laboratories, Meckenheim). The ^3 H-D-aspartate absorption was measured by means of a liquid scintillation counter (Canberra-Packard, Model 1500, Frankfurt).
The preparation activity is indicated in percent of the specific ^3 H-D-aspartate absorption, relative to control values (100%), in Table 3. Adenosine triphosphate (ATP) was used for comparison as the standard substance (see Table 3) and at 1 mM caused a 35% increase in the ^3 H-D-aspartate absorption.

NMDA-induced cramps = test: Inhibition of NMDA-induced cramps in the mouse; type: in vivo; details: po, 1 h
Experimental: 4. Inhibition of NMDA-induced-cramps in the mouse
The examples listed below show neuroprotective activity in that they antagonize the cramps induced by NMDA (N-methyl-(D)-aspartate). To this end, intravenous injections of 20-30 mg/kg of NMDA are carried out on a male NMRI (Naval Medical Research Institute) mice of 22-24 g body weight, which leads to stereotypes, clonic cramps and in the majority of cases to mortality. In order to investigate an NMDA-antagonist activity of the test substances, they are administered orally one hour before NMDA. The animals are then observed for the abovementioned symptoms for up to 60 min. The number of animals with clonic cramps and the incidence of mortality, expressed in percent change compared to the control group, is regarded as the evaluation criterion.

[5] = Toxicity (LD50) in the mouse; details: in vivo, iv
From the text: As the examples investigated show considerable differences in toxicity compared to the standard substances, the LD50 values are also listed in Table 6,

| Compound | Inhibition of 3H-MK-801 binding to the NMDA receptor-channel complex, inhibition (%) [1] | Cell necroses (% change) ([2]; histopathological score CA1, treated versus control group) | Behavior score (% change) ([2]; treated versus control group) | inhibition at 10 µM [3] | Stimulation of the 3H-D-aspartate absorption, Stimulation (%) [4] | inhibition in vivo at 50 mg/kg (NMDA-induced cramps; 50 mg/kg p.o., one hour before NMDA i.v., change compared to control group, read-out: Inhibition of convulsions) | inhibition in vivo at 50 mg/kg (NMDA-induced cramps; read-out: Inhibition of mortality) | LD50 [5] |
| --- | --- | --- | --- | --- | --- | --- | --- | --- |
| CC(C)[C@H]1CC[C@H](C)C[C@@H]1OC(=O)CCc1cc(C[N+](C)(C)C)on1 [Example 19, (+)-Menthyl 5-trimethylammoniomethylisoxazole-3-propionate iodide] | 16% | -25 % change | 0 % change | 16% | 25% |  |  |  |
| CC(C)[C@@H]1CC[C@@H](C)C[C@H]1OC(=O)CCc1cc(CNC(=O)[C@@H](N)Cc2ccccc2)on1 [Example 21, (-)-Menthyl 5-(L-phenylalanylamino)methylisoxazole-3-propionatehydrochloride] | 45% |  |  | 20% |  | 30% | 40% | 25 to 50 mg/kg |
